Target: T1, Adenosine 5'-phosphosulfate reductase (Mycobacterium tuberculosis (strain CDC 1551 / Oshkosh), UniProt P9WIK2)
T1 sequence (P9WIK2 whole entry): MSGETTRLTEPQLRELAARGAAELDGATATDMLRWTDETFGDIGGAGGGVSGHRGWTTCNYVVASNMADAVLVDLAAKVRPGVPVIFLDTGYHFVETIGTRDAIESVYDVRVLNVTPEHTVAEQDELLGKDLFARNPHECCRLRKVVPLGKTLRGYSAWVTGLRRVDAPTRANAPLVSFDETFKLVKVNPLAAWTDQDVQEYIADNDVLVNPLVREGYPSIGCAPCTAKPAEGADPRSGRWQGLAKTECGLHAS
Assay: Determination of Dissociation Constant (Kd)
Conditions: pH 7.5; 30 °C
Experimental: Values of Ki were determined from the dependence of the observed rate constant (kobs) on inhibitor concentration. […] A range of inhibitor concentrations was employed from at least 5-fold below to 10-fold above the inhibition constant. Nonlinear least-squares fits of the equation for competitive inhibition gave excellent fits in all cases, and the standard error was typically less than 15%.

For `O=C(O)CSc1nnc2c3ccccc3c3ccccc3c2n1` [2-(1,2,4-triazatriphenylen-3-ylsulfanyl)acetic acid], the Kd was 46.8 µM.
`CC(=O)[C@H]1CC[C@@H]2[C@]1(C)CC=C1[C@]23C=C[C@]2(C[C@@H](O)CC[C@]12C)C(C(=O)O)C3C(=O)O` (stereo partly drawn) [(1R,2R,5S,6S,10S,13S,15R)-5-acetyl-13-hydroxy-6,10-dimethylpentacyclo[13.2.2.0^{1,9}.0^{2,6}.0^{10,15}]nonadeca-8,18-diene-16,17-dicarboxylic acid] gave a Kd of 127 µM.
